Results reported in patent publication US20160317420A1, “METHOD OF IMPROVING THE APPEARANCE OF SKIN AND COMPOSITIONS THEREFOR” (The Procter & Gamble Company, priority 2015, published 2016).

How the values were obtained:
[1] = test system: HMGB1 released from human neonatal keratinocytes exposed to CSE; experiment: HMGB1 Assay (in vitro stress test, cigarette smoke extract); assay type: cell-based; details: 0.01% w/v + CSE; for AVG HMGB1 released: keratinocytes, 24 hours, ELISA; for effect on the amount of HMGB1 released by keratinocytes exposed to CSE, relative to CSE test medium: p<0.1 significant
Method: Human neonatal keratinocytes (available from Thermo) were placed in each well of four 12-well plates. Each well also contained 2 ml of EPILIFE brand keratinocyte medium. The plates were incubated at 37 ° C. in a CO2 incubator until cell confluency reached 70%. Once the cell confluency reached 70%, the keratinocyte medium in each well was replaced with the appropriate medium for the test (i.e., control medium, CSE test medium, niacinamide (“N”)+CSE test medium or nicotinamide riboside chloride (“NR”)+CSE test medium) to produce test samples. The resulting test samples were incubated for 24 hours at 37 ° C. in a CO2 incubator, after which the medium in each cell was removed and the HMGB 1 levels were determined using an ELISA kit from IBL according to the manufacturer's instructions.
The N and NR media were made by adding either niacinamide or nicotinamide riboside chloride (available from Chromadex, Irvine, Calif.) to EPILIFE brand keratinocyte medium to produce a 0.01% w/v solution. The cigarette smoke extract was made by suctioning a lit cigarette through a vacuum flask containing 60 mL of phosphate buffered saline (“PBS”). 4 CAMEL brand cigarettes with the filters cut off were used to create a batch of CSE. The CSE was diluted 1:20 using keratinocyte medium to create the CSE test medium. The N+CSE medium and NR+CSE medium were prepared by adding CSE test medium to final dilution of 1:6 (CSE:medium) and either N or NR to final dilution of 0.01% w/v. Unmodified keratinocyte medium was used as the control.

[2] = test system: glycation reaction between the gelatin and glyceraldehyde; experiment: AGE Assay (in vitro suppression of AGE formation and yellowness reduction); assay type: biochemical; details: for % reduction in glycation rate vs. pos. ctrl.: 24-hr; for Δb* at 24-hr vs. 0-hour: blank-corrected yellowness; for ΔFLR at 24-hr vs. 0-hr: fluorescence 400/465 nm, 24 hours at 37° C.
Method: The anti-glycation ability of NR was determined as follows. Samples were prepared in a 96-well plate (3 replicates each) at a total volume of 250 μl/well. The test samples contained 112.5 μl of 2% w/v gelatin solution (commercially available from Sigma as Catalog # G1393-100 ML), 10 μl of 1 M glyceraldehyde (commercially available from Sigma as Catalog # G5001-1 G), 102.5 p1 Dulbecco's phosphate buffered saline (“DPBS”) (commercially available from Gibco's), and varying doses (0.1%, 0.5%, 1% and 5% w/v) of nicotinamide riboside chloride (“NR”) (available from Chromadex, Irvine, CA). The positive control contained 112.5 μl gelatin, 10 μl of 1 M glyceraldehyde and 127.5 μl DPBS. The negative control contained 112.5 μl gelatin and 137.5 μl DPBS. A 5% w/v niacinamide (“N”) composition was used for a benchmark comparison. The niacinamide sample contained the same amounts of gelatin, glyceraldehyde and DPBS as the 5% NR sample. The plate containing the test samples was placed in a CO2 incubator (e.g., THERMO SCIENTIFIC FORMA brand CO2 incubator available from Fisher Scientific, Waltham, Mass. or equivalent) and incubated for 24 hours at 37° C.
After 24 hours, the plate containing the test samples was removed from the incubator and placed in a SPECTRAMAX Plus brand spectrophotometer (available from Molecular Devices, Sunnyvale, Calif.). The spectrophotometer was set to detect fluorescence intensity (“FLR”) at 400/465 nm (ex/em). Glycation rate was determined by measuring FLR, at 0-hour (i.e., at the start of the test), 2-hour, 5-hour and 24-hour time points. The change in fluorescence intensity (“ΔFLR”) was determined by comparing the FLR of a well at a sampling time point to the 0-hour time point. To determine yellowness (i.e., b* value), a SPECTRAMAX Plus brand spectrophotometer was used to collect wavelength/absorbance pairs from 350 nm to 750 nm in 10 nm increments following the same time course as the FLR measurements (i.e., 0-hour, 2-hour, 5-hour and 24-hour). The wavelength/absorbance pairs were then converted to L*a*b* values by a computer using conversion software. The change in yellowness (“Ab*”) at a particular time point was determined by subtracting the b* value at the 0-hour time point from the b* value measured at the time point of interest. To correct for yellowness that is not due to the glycation reaction between the gelatin and glyceraldehyde, a blank well was set up for each treatment leg. The blank well contains every ingredient in the corresponding treatment leg except for the gelatin. The b* value of the blank well is subtracted from the b* value measured for each well before calculating the final Ab* value.

Row | SMILES | AVG HMGB1 released [1] [ng/mL] | effect on the amount of HMGB1 released by keratinocytes exposed to CSE, relative to CSE test medium [1] | % reduction in glycation rate vs. pos. ctrl. ([2]; 5% w/v) [%] | Δb* at 24-hr vs. 0-hour ([2]; 5% w/v) | ΔFLR at 24-hr vs. 0-hr ([2]; 5% w/v) | % reduction in glycation rate vs. pos. ctrl. ([2]; 0.1% w/v) [%] | Δb* at 24-hr vs. 0-hour ([2]; 0.1% w/v) | ΔFLR at 24-hr vs. 0-hr ([2]; 0.1% w/v) | % reduction in glycation rate vs. pos. ctrl. ([2]; 0.5% w/v) [%] | Δb* at 24-hr vs. 0-hour ([2]; 0.5% w/v) | ΔFLR at 24-hr vs. 0-hr ([2]; 0.5% w/v) | % reduction in glycation rate vs. pos. ctrl. ([2]; 1% w/v) [%] | Δb* at 24-hr vs. 0-hour ([2]; 1% w/v) | ΔFLR at 24-hr vs. 0-hr ([2]; 1% w/v)
1 | NC(=O)c1cccnc1 [N, niacinamide, reference compound] | 4.2790 | no significant effect | 33.2 | 9.19 | 2341 |  |  |  |  |  |  |  |  | 
2 | NC(=O)c1ccc[n+]([C@@H]2O[C@H](CO)[C@@H](O)[C@H]2O)c1 [NR, nicotinamide riboside chloride] | 2.0741 | significantly reduce | 98.8 | −2.09 | 41 | 22.2 | 9.44 | 2729 | 63 | −4.24 | 1294 | 85.5 | −11.00 | 507
